“Also recorded” adds a separate entry of the source.
Key:
[1] = test system: skin; conditions: in vivo; cited from earlier work
[2] = test system: inflammation following treatment with cryotherapy; conditions: topical; moderate to severe inflammation following cryotherapy; cited from earlier work
[3] = test system: chronic stable plaque psoriasis; conditions: topical 1%; cited from earlier work
[4] = test system: contact dermatitis; conditions: topically applied; cited from earlier work
[5] = test system: oxazolone induced ear inflammation in mice; assay: Oxazolone induced mouse ear oedema assay; format: in vivo; conditions: for inhibition of the formation of ear oedema: Example 7: 500 μg/ear dissolved in 96% ethanol; for % inhibition of ear swelling: 24 hours after challenge
Procedure: This screening method is commonly employed for screening and evaluation of anti-inflammatory drugs, in particular with respect to the inflammation seen in contact dermatitis. Betamethasone-17 valerate was used as the positive control. […] Betamethasone was administered topically in quantities of 20 μg/ear. Betamethasone was applied in the commercial form Celeston valerate® 0.1%. All groups were immunised with 20 μl oxazolone, 1.6% in ethanol 96% (w/v) on the left and the right ear. The ear thickness of all mice on both the left and right side was measured with an electronic measuring gauge. All groups were challenged with 20 μl oxazolone (1.6% in ethanol 96% (w/v)) on the left ear and the right ear. Vehicle (acetone) or test article solutions were administered 20 minutes before and 20 minutes after oxazolone challenge. 24 hours after oxazolone challenge the ear thickness of all mice was measured with an electronic measuring gauge. Mean thickness of the ears and standard deviations were calculated. Ear swelling was calculated as the difference between the ear thickness day 7 and day 8. […] Differences in ear swelling between the vehicle treated group and the other groups were tested for significance employing a non-parametric statistical method of analysis, the Mann-Whitney U test. The required level of significance was p<0.05. […] Both test articles were applied in a dose of 500 μg/ear and dissolved in 96% ethanol. Betamethasone, as the positive control was administered topically in quantities of 20 μg/ear.

[6] = test system: undamaged skin area; assay: Acute dermal irritation; format: in vivo; conditions: for cutaneous reactions (erythema and oedema): 0.5 mL patch
Procedure: The sample was applied at a dose of 0.5 mL, on an undamaged skin area of the right flank of each animal. The patch was secured in position with a strip of surgical adhesive tape.
On the left flank an untreated area served as the control.
The skin reactions were evaluated after 1 hour and then after 24, 48 and 72 hours following removal of the patch according to the following grading scale:
Erythema (0: No erythema, 1: Slight (barely perceptible) erythema, 2: Definite erythema, 3: Moderate to severe erythema, 4: Severe erythema (purple) with formation of eschars (deep lesions) preventing erythema from being grading).
Oedema (0: No oedema, 1: Very slight (barely perceptible) oedema, 2: Slight oedema (contour clearly defined), 3: Moderate oedema (thickness), 4: Severe oedema (thickness greater than 1 mm, surface larger than zone of application)

[7] = test system: guinea pig skin; conditions: in vivo
Procedure: Test for photo toxicity is carried out to evaluate the risk of cutaneous reactions on the guinea pig following exposure to ultraviolet radiation.
Thirty minutes after the treatment, the animals were subjected to ultraviolet radiations (UV-B first and then UV-A).
The animals were irradiated with the irradiation source VLX 3W (Biotronic, Vilbert Lourmat) at the Maximal Non Erythemateous Dose (M.N.E.D) 7000 J/cm2 for UV-A and 150 mJ/cm2 for the UV-B.
A macroscopic evaluation of the cutaneous reactions (erythema and oedema) was conducted 24 and 48 hours after irradiation.

[8] = 25° C.; cited from earlier work
[9] = target: T1, anandamide hydrolase (a fatty acid amide hydrolase) (Homo sapiens, UniProt O00519); conditions: in neurons; cited from earlier work
T1 construct: host or cells: neurons
T1 sequence (O00519 1-579): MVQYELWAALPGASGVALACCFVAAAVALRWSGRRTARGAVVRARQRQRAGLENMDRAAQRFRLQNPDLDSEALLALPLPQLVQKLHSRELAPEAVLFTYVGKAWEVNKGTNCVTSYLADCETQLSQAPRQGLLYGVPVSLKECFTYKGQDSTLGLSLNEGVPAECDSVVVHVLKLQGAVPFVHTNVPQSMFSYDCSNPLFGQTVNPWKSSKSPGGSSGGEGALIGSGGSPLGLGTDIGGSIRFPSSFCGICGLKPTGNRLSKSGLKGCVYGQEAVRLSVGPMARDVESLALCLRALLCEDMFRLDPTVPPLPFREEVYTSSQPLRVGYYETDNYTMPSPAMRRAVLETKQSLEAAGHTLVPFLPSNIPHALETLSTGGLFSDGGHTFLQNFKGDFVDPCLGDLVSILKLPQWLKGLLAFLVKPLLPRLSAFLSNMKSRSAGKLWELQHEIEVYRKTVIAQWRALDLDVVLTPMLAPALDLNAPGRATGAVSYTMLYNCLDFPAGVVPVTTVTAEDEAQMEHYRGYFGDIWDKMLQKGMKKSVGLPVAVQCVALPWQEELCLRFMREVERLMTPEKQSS

[10] = test system: NF-kappaB activation; conditions: in inflammatory cells; cited from earlier work
[11] = test system: activated monocytes; conditions: cited from earlier work
[12] = target: Phosphodiesterase PDE IV; assay: Phosphodiesterase PDE IV enzyme assay (MDS Pharma Service No. 154000); format: biochemical
Procedure: (§1) The enzyme assays were conducted by MSD Pharma Services.

[13] = target: T2, Protein Tyrosine Kinase, SYK (Homo sapiens, UniProt P43405); assay: Protein Tyrosine Kinase SYK enzyme assay (MDS Pharma Service No. 155761); format: biochemical
T2 construct: purchased MDS Pharma Services (contract assay) 155761
Procedure: as §1

[14] = target: T3, Protein Tyrosine Kinase, ZA70 (ZAP-70) (Homo sapiens, UniProt P43403); assay: Protein Tyrosine Kinase ZA70 (ZAP-70) enzyme assay (MDS Pharma Service No. 155987); format: biochemical
T3 construct: purchased MDS Pharma Services (contract assay) 155987
T3 sequence (P43403 1-619): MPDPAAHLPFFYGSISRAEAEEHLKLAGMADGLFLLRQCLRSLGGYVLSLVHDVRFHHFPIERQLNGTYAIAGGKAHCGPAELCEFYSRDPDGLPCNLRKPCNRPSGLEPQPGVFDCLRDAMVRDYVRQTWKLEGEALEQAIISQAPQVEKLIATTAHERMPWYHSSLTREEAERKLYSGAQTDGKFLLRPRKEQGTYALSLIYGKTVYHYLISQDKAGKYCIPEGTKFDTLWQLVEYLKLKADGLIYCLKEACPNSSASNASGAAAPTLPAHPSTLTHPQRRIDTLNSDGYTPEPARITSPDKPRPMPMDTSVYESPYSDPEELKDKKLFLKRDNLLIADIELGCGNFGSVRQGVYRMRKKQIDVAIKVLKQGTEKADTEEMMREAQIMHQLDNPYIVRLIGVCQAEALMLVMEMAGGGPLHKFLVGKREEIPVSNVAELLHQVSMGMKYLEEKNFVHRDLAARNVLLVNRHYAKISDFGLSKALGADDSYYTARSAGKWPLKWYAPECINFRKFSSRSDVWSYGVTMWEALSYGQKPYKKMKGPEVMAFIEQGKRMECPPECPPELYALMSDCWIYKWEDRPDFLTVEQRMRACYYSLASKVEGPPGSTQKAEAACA
Procedure: as §1

[15] = test system: guinea pig skin; conditions: in vivo; remark: listed apart in the source
Procedure: Test for skin sensitization is carried out according to the Magnusson and Kligman method (J. Invest. Dermatol. 1969. 52, 268-276) and in accordance with O.E.C.D. Guideline No. 406 of Jul. 17th, 1992, and the test method B.6 of the 96/54 E.E.C Directive.
Albino guinea pigs of Dunkin-Hartley strain were exposed to the test item after an acclimatisation period of at least five days.
The Maximum Non Necrotizing Concentration (M.N.N.C.) was determined by injecting by intradermal route the following concentrations: 2.5%, 1.25%, 0.625%, 0.3125%, 0.1562% and 0.078% diluted in physiological saline solution.
Pre-Maximum Non Irritant Concentration (pre-M.N.I.C.) was determined by application of the test item under an occlusive dressing during 24 hours, at the following concentrations: 2.5%, 1.25%, 0.625%, 0.3125% diluted in physiological saline solution.
Maximum Non Irritant Concentration (M.N.I.C.) was determined by initially establishing an induction phase by intradermal injection with a physiological saline solution and by topical application of distilled water followed by a 18-day rest phase. In the challenge phase where the test item is under occlusive dressing for 24 hours, the test item was applied to the skin of the Albino guinea pigs at the following concentrations: 2.5%, 1.25%, 0.625%, 0.3125% diluted in physiological saline solution.

[16] = test system: human skin inflammation; conditions: topical treatment; cited from earlier work
[17] = monoethanolamine salt 5% by weight in water
[18] = Oxaprozin as the monoethanolamine salt

## CC(=O)Oc1ccccc1C(=O)O [aspirin]
[1]
  cutaneous side effects: may induce urticarial reactions

## CN1C(C(=O)Nc2ccccn2)=C(O)c2ccccc2S1(=O)=O [piroxicam]
[1]
  cutaneous side effects: can lead to phototoxic or photo allergic dermatitis

## COc1ccc2c(c1)c(CC(=O)O)c(C)n2C(=O)c1ccc(Cl)cc1 [indomethacin]
[2]
  relief of erythema and oedema: poor effect in relieving the erythema and oedema
[3]
  effect on chronic stable plaque psoriasis: no effect
[4]
  response in animal model of contact dermatitis: shown to respond
[1]
  cutaneous side effects: may induce urticarial reactions

## O=C(O)CCc1nc(-c2ccccc2)c(-c2ccccc2)o1 [Oxaprozin, 4,5-diphenyl-2-oxazole-propionic acid]
[5]
  inhibition of the formation of ear oedema: statistically significant inhibition of the formation of ear oedema
[6]; monoethanolamine salt 2.5% by weight in water, 1, 24, 48, 72 hours
  cutaneous reactions (erythema and oedema): no cutaneous reactions (erythema and oedema) were observed
[6]; [17]
  reversibility of erythema: totally reversible between the 2nd and the 3rd day of the test
  cutaneous reactions (erythema and oedema): only a slight erythema on the treated area at the reading time 1 hour
[7]
  photo toxicity: not phototoxic
[8]
  solubility in water: about 1.7 mg/ml
[9]
  inhibition of anandamide hydrolase: inhibits
[10]
  inhibition of NF-kappaB activation: inhibits
[11]
  apoptosis of activated monocytes: induces apoptosis of activated monocytes in a dose-dependent manner

## CCC(=O)O[C@]1(C(=O)CCl)[C@@H](C)C[C@H]2[C@@H]3CCC4=CC(=O)C=C[C@]4(C)[C@@]3(F)[C@@H](O)C[C@@]21C [clobetasol propionate]
[2]
  relief of erythema and oedema: proved to have effect

## O=C(O)CCc1nc(-c2ccccc2)c(-c2ccccc2)o1 [Monoethanolamine Oxaprozin]
[12]; [18]
  IC50: 22 µM
[13]; [18]
  IC50: 28 µM
[14]; [18]
  IC50: 38 µM
[5]; 250 μg/ear topical in acetone, 20 min before and after challenge
  % inhibition of ear swelling: 53%
[5]; 500 μg/ear topical in acetone, 20 min before and after challenge
  % inhibition of ear swelling: 77%
[5]; 1000 μg/ear topical in acetone, 20 min before and after challenge
  % inhibition of ear swelling: 95%
[5]; 250-1000 μg/ear
  inhibition of ear swelling (in words): dose dependent and highly significant inhibition of ear swelling
[5]; highest dose (1000 μg/ear) vs Betamethasone 17-valerate 20 μg/ear
  inhibition of ear swelling compared with positive control: significantly stronger than the inhibition obtained with Betamethasone 17-valerate
[15]
  skin sensitization: not causing sensitization reactions

## CC(C(=O)O)c1ccc(-c2ccccc2)c(F)c1 (stereo not shown) [flubiprofen]
[16]
  effect on human skin inflammation: reduces human skin inflammation

## CCCCOc1ccc(CC(=O)NO)cc1 [Bufexamac]
[12]
  inhibitory effect on the PDE-IV enzyme: exhibits inhibitory effect
[13]
  inhibitory effect on Protein Tyrosine Kinase SYK: only exhibits inhibitory effect on the PDE-IV enzyme
[14]
  inhibitory effect on Protein Tyrosine Kinase ZAP-70: only exhibits inhibitory effect on the PDE-IV enzyme
[5]
  inhibition of the formation of ear oedema: did not inhibit the formation of ear oedema at all
[1]
  cutaneous side effects: reported to cause contact allergy; also recorded: major contact allergens

## CC(C(=O)O)c1cccc(C(=O)c2ccccc2)c1 (stereo not shown) [Ketoprofen]
[1]
  cutaneous side effects: major contact allergens

## CCCCC(=O)O[C@]1(C(=O)CO)[C@@H](C)C[C@H]2[C@@H]3CCC4=CC(=O)C=C[C@]4(C)[C@@]3(F)[C@@H](O)C[C@@]21C [Betamethasone 17-valerate]
[5]; 20 μg/ear topical (Celeston valerate 0.1%)
  % inhibition of ear swelling: 66%

## O=C(O)Cc1ccccc1Nc1c(Cl)cccc1Cl [Diclofenac]
[1]
  cutaneous side effects: irritant-type contact dermatitis may develop
